Assay [1] has as its system S. aureus ATCC 43300 (methicillin resistant). The experiment in a line: MIC against clinically isolated strain 5. As to conditions: Staphylococcus aureus, ATCC43300. The class given is cell-based. As to the method: (§1) Procedure of Antimicrobial susceptibility test: The MIC value of compounds was measured in the antimicrobial susceptibility test using the broth microdilution procedure in accordance with the CLSI guidelines.^21 Cation-adjusted Mueller Hinton broth (CA-MHB) was used for all the S. aureus strains in the assay. Cells in exponential phase of growth were diluted to approximately 5×10^5 cfu/mL. Stock solutions of each compound were freshly dissolved in dimethyl sulfoxide (DMSO). Then, serial dilutions of each compound in CA-MHB medium were added into 96-well microplate. The final percentage of DMSO in the assay was 1%. Control experiments were performed with 1% DMSO instead of the compound solution. After being incubated at 37° C. for 18 h, OD600 value of cells was measured on a microplate reader and the percentage of bacterial cell inhibition with respect to controls was calculated. The MIC value was defined as the lowest compound concentration at which the growth of bacteria was inhibited by ≥90%. Three independent assays were performed for each compound.
(§2) Results: Three compounds, namely 14av_amine16, 14dv_amine16 and 14dv_amine06, were selected to be tested against nine in-house clinically isolated bacterial strains including S. aureus ATCC29247, which is an ampicillin resistant strain, S. aureus ATCC BAA-41, ATCC BAA-1717, ATCC BAA-1720, ATCC 43300 which are methicillin resistant strains and four USA300 strains, (#417, #757, #1799 and #2690), which are the predominant strain type of community-associated MRSA strains in the United States.

For a further assay, the system named is E. coli strain ATCC25922. Briefly: MIC, broth microdilution antimicrobial susceptibility test (CLSI). The class given is cell-based. As to conditions: Escherichia coli, ATCC25922; E. coli ATCC 25922; growth inhibited by ≥90%, 18 h; read-out: MIC^c: Minimum inhibitory concentration against E. coli.
From the text: (§3) This example illustrates the evaluation of 2,4,6-trisubstituted pyrimidines 14 for their antimicrobial activities against the Gram positive S. aureus strain ATCC29213 and the Gram negative E. coli strain ATCC25922 by measuring their MIC, which is the lowest concentration of an antimicrobial agent that prevents visible growth of a microorganism in a broth dilution susceptibility test according to the standard method approved by the Clinical and Laboratory Standards Institute (CLSI) guidelines.^21
as §1

The subject of assay [2] is S. aureus strain ATCC29213. Described as above. The class given is cell-based. As to conditions: for MIC: Staphylococcus aureus.
From the text: as §3, §1

Assay [3] has as its system S. aureus ATCC BAA-1720 (methicillin resistant). The experiment in a line: MIC against clinically isolated strain 3. The settings on record: Staphylococcus aureus, ATCCBAA1720. In kind it is cell-based. As to the method:
as §1, §2

Assay [4] has as its system USA300 #2690 (community-associated MRSA). The experiment in a line: MIC against clinically isolated strain 9. As to conditions: Staphylococcus aureus. The class given is cell-based, S. aureus. As to the method:
as §1, §2

Assay [5] relates to S. aureus ATCC BAA-41 (methicillin resistant). Briefly: MIC against clinically isolated strain 4. The class given is cell-based. The settings on record: Staphylococcus aureus, ATCCBAA41. As to the method: as §1, §2
For assay [6], the system named is USA300 #757 (community-associated MRSA). Briefly: MIC against clinically isolated strain 7. In kind it is cell-based, S. aureus. As to conditions: Staphylococcus aureus. How it is done:
as §1, §2

Assay [7] relates to USA300 #1799 (community-associated MRSA). The experiment in a line: MIC against clinically isolated strain 8. In kind it is cell-based, S. aureus. As to conditions: Staphylococcus aureus. How it is done:
as §1, §2

Assay [8] deals with USA300 #417 (community-associated MRSA). The experiment in a line: MIC against clinically isolated strain 6. In kind it is cell-based, S. aureus. The settings on record: Staphylococcus aureus. As to the method: as §1, §2
The subject of assay [9] is S. aureus ATCC BAA-1717 (methicillin resistant). The experiment in a line: MIC against clinically isolated strain 2. In kind it is cell-based. The settings on record: Staphylococcus aureus, ATCCBAA1717. As to the method: as §1, §2
Assay [10] relates to S. aureus ATCC 29247 (ampicillin resistant strain). Briefly: MIC against clinically isolated strain 1. As to conditions: Staphylococcus aureus, ATCC29247. In kind it is cell-based. How it is done: as §1, §2
For assay [11], the system named is clinically isolated S. aureus strains. Briefly: MIC against the nine clinically isolated S. aureus strains. The class given is cell-based. The settings on record: Staphylococcus aureus; most of the MRSA strains. As to the method: as §1, with “compound. […]” for “compound.”

Converted amounts (≈) assume the structure as drawn. Read-outs that look alike come from different tables or passages of the source.

As to `FC(F)(F)c1ccc(CN2CCCN(CCc3cc(-c4ccccc4)nc(-c4ccncc4)n3)CC2)cc1` [Compound 14dv_amine16, 1-(2-(6-phenyl-2-(pyridin-4-yl)pyrimidin-4-yl)ethyl)-4-(4-(trifluoromethyl)benzyl)-1,4-diazepane], the MIC in assay [1] was 10 µM (≈ 5.18 µg/mL); in the assay with E. coli strain ATCC25922 it was more than 125 µM; in assay [2] (ATCC29213, S. aureus 29213, growth inhibited by ≥90%, 18 h, read-out: MIC^b: Minimum inhibitory concentration against S. aureus), 5 µM (≈ 2.59 µg/mL); in [2] (S. aureus ATCC29213, read-out: MIC against S. aureus), 5 to 8 µM (≈ 2.59 to 4.14 µg/mL); in assay [3] it was 10 µM (≈ 5.18 µg/mL); in [4] it was 10 µM (≈ 5.18 µg/mL). Also, the MIC worked out at 10 µM (≈ 5.18 µg/mL) in assay [5]; 10 µM (≈ 5.18 µg/mL) in assay [6]; 10 µM (≈ 5.18 µg/mL) in assay [7]; 10 µM (≈ 5.18 µg/mL) in assay [8]; 5 µM (≈ 2.59 µg/mL) in assay [9]; 5 µM (≈ 2.59 µg/mL) in assay [10]. Further, in assay [2] (E. coli ATCC 25922 MIC over S. aureus 29213 MIC), the “MIC^c/MIC^b: Selectivity index” value was more than 25.

Consider `COc1cccc(OC)c1C(=O)N[C@@H]1C(=O)N2[C@@H]1SC(C)(C)[C@@H]2C(=O)O` [Methicillin, reference compound], for which the MIC is more than 30 µM in assay [1]; more than 30 µM in assay [3]; 15 µM (≈ 5.71 µg/mL) in assay [4]; more than 30 µM in assay [5]; 30 µM (≈ 11.4 µg/mL) in [6]; 30 µM (≈ 11.4 µg/mL) in assay [7]. Besides, the MIC in assay [11], in assay [8] and in assay [9] was more than 30 µM each time.

For the origin of these results see patent publication US9951039B2, “Pyrimidines for treatment of bacterial infections” (The Hong Kong Polytechnic University, priority 2016, dated 2018).
